Data on twelve compounds can be found in article PMC3983201, “6-Methoxyflavanones as Bitter Taste Receptor Blockers for hTAS2R39” (PLoS ONE, 2014).

Like-named read-outs stand apart in the source and are kept apart here.

The target of test [1] is T1, hTAS2R39 (Homo sapiens, UniProt P59534).
T1 construct: first 45 amino acids of rat somatostatin receptor type 3 (sst3 membrane-targeting tag) (N); expressed in transfected cells; host or cells: HEK293 T-Rex Flp-In cells stably expressing Gα16-gust44; receptor in pcDNA5/FRT, induced with doxycycline
T1 sequence (P59534 1-338): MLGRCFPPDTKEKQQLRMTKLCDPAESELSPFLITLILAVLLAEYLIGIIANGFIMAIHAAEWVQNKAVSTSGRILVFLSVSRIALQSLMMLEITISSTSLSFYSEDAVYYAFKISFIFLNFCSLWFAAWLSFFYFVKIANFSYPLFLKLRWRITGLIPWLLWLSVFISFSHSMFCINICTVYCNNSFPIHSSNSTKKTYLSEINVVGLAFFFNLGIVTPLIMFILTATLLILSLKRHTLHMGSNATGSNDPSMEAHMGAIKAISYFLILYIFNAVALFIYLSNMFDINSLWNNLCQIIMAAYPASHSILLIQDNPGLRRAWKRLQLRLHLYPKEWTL
Further details: method as in PMID 24117141. The note with it: cited from earlier work.

In test [2] the target is T1, hTAS2R39. In words: Calcium assay of hTAS2R39 activation/inhibition in HEK293 T-Rex Flp-In cells. Type of test: cell-based. The settings on record: for reduction of ECG response on hTAS2R39 (screening for inhibition): simultaneous application of 200 μM ECG and 250 μM flavanone, inhibition when response ratio <1; for EC80 on hTAS2R39: agonist dose-response curve.
For test [3], the target named is T2, hTAS2R14 (Homo sapiens, UniProt Q9NYV8).
T2 construct: first 45 amino acids of rat somatostatin receptor type 3 (sst3 membrane-targeting tag) (N); expressed in transfected cells; host or cells: HEK293 T-Rex Flp-In cells stably expressing Gα16-gust44; induced with doxycycline
T2 sequence (Q9NYV8 1-317): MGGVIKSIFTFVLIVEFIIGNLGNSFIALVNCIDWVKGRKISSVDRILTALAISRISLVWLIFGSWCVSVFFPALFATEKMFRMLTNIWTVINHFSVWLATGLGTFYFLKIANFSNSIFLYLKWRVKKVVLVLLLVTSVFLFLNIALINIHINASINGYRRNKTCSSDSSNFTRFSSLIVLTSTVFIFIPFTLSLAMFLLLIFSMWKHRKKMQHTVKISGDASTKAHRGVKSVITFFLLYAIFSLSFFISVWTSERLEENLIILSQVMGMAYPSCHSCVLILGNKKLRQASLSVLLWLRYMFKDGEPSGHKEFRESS
Briefly: Calcium assay of hTAS2R14 activation/inhibition in HEK293 T-Rex Flp-In cells. Type of test: cell-based. The note with it: for EC80 on hTAS2R14: agonist concentration used in inhibition tests; for IC50, Simultaneous / Threshold, Simultaneous: simultaneous addition, n.b. = no blocking. The text has this:
For functional expression of the human bitter taste receptor hTAS2R39, HEK293 T-Rex Flp-In cells (Invitrogen, San Diego, CA, USA) were used, stably expressing the chimeric G-protein α-subunit Gα16-gust44 (cloned into pcDNA4 (Invitrogen)) and the human bitter receptor genes for hTAS2R39 (cloned into pcDNA5/FRT (Invitrogen)). The bitter receptor gene contained a DNA sequence encoding the first 45 amino acids of rat somatostatin receptor type 3 at its 5′ end (the receptor expression was achieved according to [18] with exception of the HSV-tag), in order to improve membrane targeting of the receptor protein. The same procedure was applied for stable expression of hTAS2R14. Cells were maintained in Dulbecco's Modified Eagle's Medium (DMEM) and 10% (v/v) tetracycline-free FBS (both Lonza, Verviers, Belgium) supplemented with blasticidin (5 μg/mL), geneticin (400 μg/mL) and hygromycin (100 μg/mL) (all from Invitrogen). Cells were grown and maintained at 37 °C and 5% (v/v) CO2.
Cells were seeded into poly-L-lysine-coated (Sigma-Aldrich) 96-well plates (black wall, clear bottom, Greiner bio-one, Frickenhausen, Germany) at a density of 7*10^3 cells in 100 μL/well and cultured for 24 h. Transcription of the receptors was induced by adding 0.25 μg/mL doxycycline (Sigma-Aldrich). […] One hour after loading, cells were washed with Tyrode's buffer and taken up in Tyrode's buffer. Stock solutions of test compounds were prepared in DMSO and diluted to the appropriate concentration in Tyrode's buffer, not exceeding a DMSO concentration of 1% (v/v).
(§1) Two methods of compound administration were applied: simultaneous and stepwise addition of potential antagonist and agonist. The first 17 s before compound addition were used for baseline determination. For the simultaneous method, agonist and potential antagonist were pre-mixed, administered after 17 s, and fluorescence was measured for in total 90 s. For the stepwise method, after 17 s, the potential antagonist was added, fluorescence was measured until 120 s, and after 120 s the agonist was added and measured for another 120 s, in total 240 s. […] Each experiment was performed at least in duplicate in separate experiments (as indicated for each figure).
Data processing was done as reported previously. In brief, SoftMax Pro 5.4 software (Molecular Devices Corporation) was used to plot the fluorescence signals. The fluorescence value (ΔF/F0), representing receptor activity, was calculated by subtracting the baseline fluorescence (F0) prior to loading from the maximum fluorescence (F) after compound addition, divided by the signal of the baseline in order to normalize background fluorescence. Dose-response curves were established as non-linear regression curves using Graph Pad Prism (version 4 for Windows, Graph Pad Software, San Diego, CA, USA). Half-maximal effective concentrations (EC50) and half-maximal inhibitory concentrations (IC50) were calculated. Error bars reflect the standard error of the mean (SEM). Statistical analysis was performed in Graph Pad Prism (one-way ANOVA at 5% risk level, followed by Bonferroni's post hoc test).
Inhibition was indicated when [drawing 1] . In case of indicated inhibition, flavanones were applied at different concentrations, in order to test for dose-dependent inhibition, at the EC80 concentration of the agonist. […] To investigate the specificity of flavanones for inhibition of hTAS2R39 and hTAS2R14, another bitter taste receptor, hTAS2R16 (not known to be activated by flavonoids), was used in inhibition experiments ( File S3 ) towards its agonist salicin.

The target of test [4] is T3, hTAS2R16 (Homo sapiens, UniProt Q9NYV7).
T3 construct: expressed in transfected cells; host or cells: induced versus non-induced cells
T3 sequence (Q9NYV7 1-291): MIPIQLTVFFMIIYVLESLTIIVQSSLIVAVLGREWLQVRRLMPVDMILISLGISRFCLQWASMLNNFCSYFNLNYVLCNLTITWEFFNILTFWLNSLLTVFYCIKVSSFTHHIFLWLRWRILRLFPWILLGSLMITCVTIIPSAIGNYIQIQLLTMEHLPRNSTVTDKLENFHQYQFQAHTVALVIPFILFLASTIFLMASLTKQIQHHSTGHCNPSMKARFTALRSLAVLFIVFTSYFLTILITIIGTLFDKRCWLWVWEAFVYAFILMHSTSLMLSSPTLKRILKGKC
Briefly: Calcium assay of hTAS2R16 activation/inhibition (salicin as agonist). Type of test: cell-based. As to the method: Cells were seeded into poly-L-lysine-coated (Sigma-Aldrich) 96-well plates (black wall, clear bottom, Greiner bio-one, Frickenhausen, Germany) at a density of 7*10^3 cells in 100 μL/well and cultured for 24 h. Transcription of the receptors was induced by adding 0.25 μg/mL doxycycline (Sigma-Aldrich). Cells were induced for 24 h and then loaded with the calcium-sensitive fluorescent dye Fluo-4-AM (2.5 μM, Invitrogen), which was dissolved in Tyrode's buffer containing 5% (v/v) tetracycline-free FBS (Lonza). One hour after loading, cells were washed with Tyrode's buffer and taken up in Tyrode's buffer. Stock solutions of test compounds were prepared in DMSO and diluted to the appropriate concentration in Tyrode's buffer, not exceeding a DMSO concentration of 1% (v/v).
as §1, with “Receptor activation or inhibition was measured via intracellular Ca^2+ release in a FlexStation II 384 or FlexStation III (Molecular Devices Corporation, Sunnyvale, CA, USA) by measuring fluorescence (excitation 485 nm/emission 520 nm) for either 90 s or 240 s at 37°C. Two” for “Two”
Screening for hTAS2R39 inhibition by flavanones was performed with simultaneous application of agonist (200 μM ECG) and putative antagonist (250 μM flavanone). Inhibition was indicated when [drawing 1] . In case of indicated inhibition, flavanones were applied at different concentrations, in order to test for dose-dependent inhibition, at the EC80 concentration of the agonist. Another agonist of hTAS2R39, denatonium benzoate, was used in inhibition experiments at 1.7 mM (EC80). hTAS2R14 inhibition was tested with 640 μM ECG or 70 μM genistein as agonists, representing their respective EC80 concentrations. To investigate the specificity of flavanones for inhibition of hTAS2R39 and hTAS2R14, another bitter taste receptor, hTAS2R16 (not known to be activated by flavonoids), was used in inhibition experiments ( File S3 ) towards its agonist salicin.
SUPPORTING INFORMATION to the article “6-Methoxyflavanones as Bitter Taste Receptor Blockers for hTAS2R39” by Roland, WSU; Gouka, RJ; Gruppen, H; Driesse, M; van Buren, L; Smit, G; Vincken, J-P File S3 Investigation of identified inhibitors on hTAS2R16.
To investigate whether the hTAS2R39 inhibitors 6,3’-dimethoxyflavanone (3), 4’- fluoro-6-methoxyflavanone (6), and 6-methoxyflavanone (11) were able to inhibit a bitter receptor not known for flavonoid activation, hTAS2R16 was selected for inhibition experiments. Measuring dose-response curves of the hTAS2R16 agonist […]
Figure S3. Inhibition of response of 10 mM salicin (---) on hTAS2R16 (induced (●), non-induced (○)) by 4’-fluoro-6-methoxyflavanone (6) after simultaneous addition (A) and stepwise addition (B), by 6,3’-dimethoxyflavanone (3) after simultaneous addition (C) and stepwise addition (D), and by 6-methoxyflavanone (11) after simultaneous addition (E) and stepwise addition (F). […]

Test [5] concerns bitter taste. Set-up: method as in PMID 16028996. The note with it: in-vivo sensory masking, unknown mechanism; cited from earlier work.
Where [6] appears, read: inhibition of hTAS2R14 response to 70 μM genistein.
Setting [7] is: inhibition of hTAS2R14 response to 640 μM ECG.
Setting [8] is: 0 μM 4′-fluoro-6-methoxyflavanone (6), stepwise addition, read-out: EC50 of agonist on hTAS2R39.

As for `O=C1CC(c2ccccc2)Oc2ccccc21` (stereo not shown) [Compound 5, Flavanone], the “activation of hTAS2R39 in a previous study” value in test [1] was “b no activation of hTAS2R39 in a previous study [16]”. Moreover, the “reduction of ECG response on hTAS2R39 (screening for inhibition)” value (from here on “reduction … (screening for inhibition)”) in test [2] is on record as “did not show inhibitory activity”.

As for `COc1ccc2oc(-c3ccccc3)cc(=O)c2c1` [6-methoxyflavone, reference compound], the “inhibition of hTAS2R39 activation” value in test [2] (data not shown) is on record as “unable to inhibit hTAS2R39 activation”.

With `O=C1CC(c2ccc(O)cc2)Oc2ccccc21` (stereo not shown) [Compound 10, 4′-Hydroxyflavanone], the “activation of hTAS2R39 in a previous study” value in test [1] was “b no activation of hTAS2R39 in a previous study [16]”.

On to `O=c1c(-c2ccc(O)cc2)coc2cc(O)cc(O)c12` [genistein, reference compound], for which, in test [3], the “EC80 on hTAS2R14” value worked out at 70 µM.

As to `O=C1CC(c2ccccc2)Oc2ccc(O)cc21` (stereo not shown) [Compound 8, 6-Hydroxyflavanone], the “reduction … (screening for inhibition)” value in test [2] is listed as “did not show inhibitory activity”.

Broadly, the IC50 is the point on the concentration scale where inhibition reaches its midpoint. Take `COc1cccc(C2CC(=O)c3cc(OC)ccc3O2)c1` (stereo not shown) [Compound 3, 6,3′-Dimethoxyflavanone]: the “inhibition of salicin response on hTAS2R16” value in test [4] (10 mM salicin, simultaneous and stepwise addition) is given as “no inhibition”. In test [3] (setting [6]), the “IC50, Simultaneous” value is “n.b” and the “Threshold, Simultaneous” value is “n.b”. Moreover, in test [3] (setting [7]), the “IC50, Simultaneous” value was “n.b” and the “Threshold, Simultaneous” value is “n.b”. For the same compound, the IC50 in test [3] (inhibition of hTAS2R14 response to 640 μM ECG, stepwise addition) was about 250 µM.

The EC50 is the concentration giving half of the maximal effect. Turning to `O=C(O[C@@H]1Cc2c(O)cc(O)cc2O[C@@H]1c1ccc(O)c(O)c1)c1cc(O)c(O)c(O)c1` [ECG, Epicatechin gallate, reference compound], the “EC80 on hTAS2R14” value in test [3] came to 640 µM. In addition, in test [2] (setting [8]), the 50% effective concentration (EC50) came out at 128 ± 82 µM. The “EC80 on hTAS2R39” value in test [2] was 200 µM.

On to `CC[N+](CC)(CC(=O)Nc1c(C)cccc1C)Cc1ccccc1` [Denatonium benzoate, denatonium benzoate, reference compound], for which the 50% effective concentration (EC50) came out at 659 ± 334 µM in test [2] (setting [8]) and 711 µM in test [2] (agonist dose-response curve (data not shown), read-out: EC50 on hTAS2R39). Moreover, the “EC80 on hTAS2R39” value in test [2] was found to be 1700 µM.

Take `OCc1ccccc1O[C@@H]1O[C@H](CO)[C@@H](O)[C@H](O)[C@H]1O` [salicin, reference compound]: the “EC80 on hTAS2R16” value in test [4] (agonist dose-response curve) is reported as 10 mM.

For `COc1ccc2c(c1)OC(c1ccccc1)CC2=O` (stereo not shown) [Compound 12, 7-Methoxyflavanone], the “reduction … (screening for inhibition)” value in test [2] was “did not show inhibitory activity”.

Consider `COc1cc([C@@H]2CC(=O)c3c(O)cc([O-])cc3O2)ccc1O.[Na+]` [homoeriodictyol Na-salt, reference compound], for which, in test [5], the “reduction of the bitter taste of different chemical classes of bitter molecules” value is reported as “up to 40%”.

With `COc1ccc(C2CC(=O)c3ccccc3O2)cc1` (stereo not shown) [Compound 13, 4′-Methoxyflavanone], in test [2], the “reduction … (screening for inhibition)” value is “did not show inhibitory activity”.
